A short description of data set [1]: Solubility in 0.9% NaCl solution. The following applies: sodium chloride solution (0.9%). It is filed as physicochemical. The protocol: (ii) Solubility in 0.9% NaCl solution. To obtain a crystal-like form of the compound, GE81112A was dissolved in water followed by freeze-drying. Afterwards, 510 μg GE81112A was transferred to a glass vial with a microinsert, and 50 μL NaCl (0.9%) was added.

A short description of data set [2]: Chemical stability in the presence of GSH. Conditions: incubation for 168 h. It is filed as physicochemical. The protocol:
Based on a stock solution of 0.2 mg GE81112A in 1,548 μL methanol, three different samples were prepared in triplets (test mixture: 100 μL stock solution, 2 μL DMSO, and 1 μL DMSO containing 1.5 GSH equivalents; reference sample A: 200 μL stock solution; reference sample B: 200 μL stock solution and 2 μL DMSO). All samples were measured at three different time points (0 h, 24 h, and 168 h) on a MaXis II system (Bruker).

Data set [3] is described as follows: Cellular permeability assay using the CaCo2/TC7 cell line. Conditions: human, Caco-2; 1 or 20 μM, apical-to-basolateral, 120 min, pH 7.4; read-out: Apparent permeability. It is filed as in vitro ADME, human. The protocol: (§1) CaCo2/TC7 cells were seeded in a Falcon 24-well multiwell insert system with 1.0-μm-pore high-density polyethylene terephthalate (PET) membrane plates, at a density of 60,000 cells per well in DMEM (high glucose, with Glutamax I, without HEPES, with 20% fetal calf serum [FCS], and with penicillin-streptomycin). The cells were incubated for at least 21 days to ensure complete differentiation, polarization, and formation of a tight barrier layer. Permeability assays were performed in Hanks’ balanced salt solution (HBSS) with sodium taurocholate (186 μM), HEPES (10 mM), and bovine serum albumin (BSA) (0.5% [wt/vol]), adjusted to pH 7.4 with sodium hydroxide (1 N). GE81112A at 1 and 20 μM was assayed for 120 min in the apical-to-basolateral direction with an apical pH of 7.4 and a basolateral pH of 7.4, without a BSA gradient (0.5%) on either side. After the incubation period, apical and basolateral concentrations of GE81112A were determined using liquid chromatography-tandem mass spectrometry (LC-MS/MS).
Background: Caco-2 monolayers are a common model of the intestinal barrier.

The subject of a further data set is CaCo2/TC7 cells. The description is as above. Type of data set: in vitro ADME, human. The following applies: predicted from CaCo2/TC7 permeability. How it is done:
as §1

Data set [4] is described as follows: Metabolic stability in liver microsomes. Type of data set: in vitro ADME. The following applies: 5 μM. The protocol:
Microsomal preparations from human and animal species were used at a protein concentration of 1 mg/mL, and the cofactor NADPH was added to a final concentration of 1 mM to assay for CYP and flavin-containing monooxygenase (FMO) lability. GE81112A at 5 μM was incubated for 20 min at 37°C. The enzymatic reaction was initiated by a rapid temperature increase in a water bath at 37°C. It was stopped by a rapid temperature decrease in an ice bath at 0°C and subsequent addition of 5 volumes of precooled acetonitrile (500 μL). Loss of parent GE81112A concentration, as a percentage, was determined using LC-MS/MS measurements, where 100% was the measurement at time zero.
(In general: Liver microsomes are a subcellular fraction often used to study metabolism.)

In the next data set the target is T1, CYP3A4 (Homo sapiens, UniProt P08684).
T1 construct: the reaction mixture was prepared with a human liver microsome concentration of 0.1 mg/mL; from tissue; host or cells: human liver microsomes
Kind of data set: CYP inhibition IC50 shift assay in human liver microsomes. Type of data set: in vitro ADME. Conditions: concentrations of up to 50 μM. How it is done:
To examine the potential for time-dependent and direct competitive CYP3A4 inhibition, the reaction mixture was prepared with a human liver microsome concentration of 0.1 mg/mL. GE81112A was added to final concentrations of 50, 25, 10, 5, 2, 0.4, and 0.08 μM. Mixtures were brought to 37°C, with the addition of an NADPH-generating system (EDTA, 1 mM; MgCl2, 3 mM; β-NADPH, 1 mM; glucose 6-phosphate, 5 mM final concentration) in water to one set of reaction mixtures and water to a second set of reaction mixtures. The reaction mixtures were preincubated for 45 min. A CYP isoform-selective substrate (3 μM midazolam or 50 μM testosterone) was added to the reaction mixtures, and NADPH was added to the second set of reaction mixtures for an additional 10-min incubation period. The reactions were stopped by the addition of 200 μL internal standard solution in acetonitrile.
Both incubation plates (for midazolam and testosterone) were centrifuged at 3,000 rpm for 10 min. The samples were analyzed using LC-MS/MS. Parallel analysis of the CYP3A4 substrate midazolam and the CYP3A4 substrate testosterone was performed. The calculations of 50% inhibitory concentration (IC50) values and IC50 shift values were performed by using 4-paratemeter curve fitting.

For another data set, the system named is primary rat hepatocytes. Kind of data set: Cytotoxicity (CellTiter-Glo ATP and neutral red uptake). Type of data set: cell-based. How it is done:
The toxicity of GE81112A toward human hepatocellular carcinoma HepG2 HB-8065 (ATCC) cells and freshly isolated primary Sprague-Dawley rat hepatocytes (Charles River) was assessed by using the CellTiter-Glo ATP-monitoring kit (Promega) and by quantifying the ability to store the dye neutral red (neutral red uptake [NRU] solution; Sigma-Aldrich, St. Louis, MO, USA). The assay was conducted in 96-well microtiter plates in a test volume of 200 μL. GE81112A was tested in an 8-fold 1:2 dilution series with a final concentration range of […]. HepG2 cells or primary hepatocytes were maintained at 37°C in 5% CO2 in DMEM-F-12 medium containing 1% nonessential amino acids, 1% sodium pyruvate, and 10% heat-inactivated FCS. Prior to each test, 100 μL of culture medium was added to each well (each containing about 20,000 cells), and the plates were incubated for 16 h as described above. GE81112A was diluted in culture medium to obtain appropriate concentrations and was added to the wells as six replicates. […] After incubation for 24 h as described above, cell viability was calculated either by cell lysis and subsequent luminometric quantification of the ATP concentration in each sample or by measurement of the amount of neutral red taken up by the cells. NRU was measured at 540 nm (Tecan Genios Pro) after 3 h of incubation with NRU solution and subsequent cell lysis. […]

Consider one compound from article PMC10269895 (Microbiology Spectrum, 2023).

Usually solubility stands for how much of the substance goes into solution per volume. Low values mean little dissolved substance, high ones much dissolved substance.

T1 sequence (P08684 whole entry): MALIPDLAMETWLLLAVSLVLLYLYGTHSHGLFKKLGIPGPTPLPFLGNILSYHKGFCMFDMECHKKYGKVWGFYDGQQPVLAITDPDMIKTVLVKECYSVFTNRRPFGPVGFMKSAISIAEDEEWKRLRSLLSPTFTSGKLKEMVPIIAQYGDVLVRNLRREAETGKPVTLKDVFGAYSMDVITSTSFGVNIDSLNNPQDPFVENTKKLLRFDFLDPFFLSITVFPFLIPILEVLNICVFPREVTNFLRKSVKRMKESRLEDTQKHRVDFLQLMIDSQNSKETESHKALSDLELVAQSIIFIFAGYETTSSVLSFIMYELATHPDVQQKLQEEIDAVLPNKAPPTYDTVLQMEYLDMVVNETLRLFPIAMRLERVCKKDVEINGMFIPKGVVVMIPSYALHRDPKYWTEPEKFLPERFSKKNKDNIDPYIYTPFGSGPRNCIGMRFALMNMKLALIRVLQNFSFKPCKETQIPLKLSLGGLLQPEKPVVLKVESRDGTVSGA

As for `NC(=O)OC[C@@H](O)C[C@H](NC(=O)[C@H]1NCCC[C@H]1O)C(=O)N[C@@H](Cc1c[nH]cn1)C(=O)N[C@H](C(=O)O)[C@H](O)c1cnc(Cl)[nH]1` [GE81112A], in data set [1], the solubility was over 500 µg/mL. Moreover, the “Stability in the presence of glutathione (GSH)” value in data set [2] is “no degradation or formation of adducts”. In addition, the Papp at 120 min in data set [3] lay in the range of 0.028 to 0.316 ×10⁻⁶ cm/s. Besides, the “Absorption in the human intestine (predicted)” value in the data set on CaCo2/TC7 cells is “low”. The Oxidative metabolic lability result in data set [4] (human liver microsomes), in data set [4] (mouse liver microsomes) and in data set [4] (rat liver microsomes) was “low” throughout. Moreover, at CYP3A4, the “Direct competitive inhibition of CYPA4” value is reported as “not observed”. For the same compound, the “Time-dependent inhibition of CYPA4” value at CYP3A4 is “not observed”. In the data set with primary rat hepatocytes (24 h, highest concentration with cell viability of >80%), the “No observed effect concentration (NOEC)” value was 15.6 µM. Further, the “Overview finding: Cytotoxicity (rat hepatocytes/HepG2 cells)” value with primary rat hepatocytes (Table 3 summary rating) is “+/− (to be monitored)”.
